Marks after values point to notes of the source that are not given here.
Assays:
[1] = test system: western corn rootworm (WCR) adults; experiment: Sticky trap attraction in corn, estragole analogues (Example 3); type: in vivo, Diabrotica virgifera virgifera; conditions: 100 mg per trap; for Mean number of WCR per sticky trap (±standard deviation) after 24 hours / Mean number of WCR adults per sticky trap (±standard deviation) after 24 hours: n = 4
Method: (§1) Test chemicals were applied by capillary micropipettes to cotton dental wicks that were attached to tops of 1.0 liter cylindrical paper cartons covered with TangleTrap™, Grand Rapids, Mich. The trapping techniques used were as previously described in Example 1. Cinnamyl alcohol, 4-methoxycinnamaldehyde, cinnamyl acetate, and 4-(4′methoxyphenyl)-3-butene-2-one which are solids at ambient temperature were prepared as standard w/v solutions in acetone prior to dosing the cotton wicks. All treatments were made at a dosage of 100 mg or 100 μL of attractant per trap. Control traps had untreated wicks. Four replicates of treated and untreated traps were positioned randomly 10 meters apart on top of 1 m high posts along the edges of 25-50 ha. fields of hybrid corn (Zea mays), infested with adult NCR, SCR, and WCR beetles. Several experiments detailed in the Tables were made in a 0.4 ha plot of sweet corn (Illini X-tra Sweet).
(§2) Attraction of Diabrotica species adults of the sticky traps was measured by the mean number of beetles caught after 1 day (ca. 24 hours) exposure. The significance of the treatments was determined by analysis of variance and the individual means were separated by Duncan's multiple range test (Statistical Package for the Social Sciences, Nie, et al., 2nd. ed. McGraw-Hill, New York (1975). The data was logarithmically transformed for statistical analysis. Means and standard deviations are presented for the untransformed data. Significance levels were set at P=0.05 for all statistical analyses.

[2] = test system: southern corn rootworm (SCR) adults; experiment: as above; type: in vivo, Diabrotica undecimpunctata howardi; conditions: 100 mg per trap, n = 4
Method: as §1, §2

[3] = test system: northern corn rootworm (NCR); experiment: Sticky trap attraction in corn, phenylethanol analogues (Example 6); type: in vivo, Diabrotica barberi; conditions: four replicates; for Mean number of NCR per trap (± standard deviation): Table 20, 100 mg per trap, 24 hour
Method: as §1, with “chemicals (purchased from Aldrich Chemical Co.; Milwaukee, Wis.)” for “chemicals”, “Unless otherwise indicated, all” for “Cinnamyl alcohol, 4-methoxycinnamaldehyde, cinnamyl acetate, and 4-(4′methoxyphenyl)-3-butene-2-one which are solids at ambient temperature were prepared as standard w/v solutions in acetone prior to dosing the cotton wicks. All”
as §2

[4] = test system: southern corn rootworm (SCR) adults; experiment: Sticky trap attraction in sweet corn plots (Example 1); type: in vivo, Diabrotica undecimpunctata howardi; conditions: August first year, single compounds 100 mg per trap
Method: (§3) The attraction of Diabrotica species to single-component and multicomponent lures was evaluated in corn fields. The field experiments on attraction of SCR and WCR adults were conducted in 0.405-ha (1-acre) plots of “Illini Xtra Sweet” corn grown on the University of Illinois South Farms at Urbana, Ill., over a two year period. Most of the tests were conducted in August to correspond with the peak silk-feeding and oviposition periods of corn rootworm adults in central Illinois. In both years, the sweet corn plot was adjacent to a 0.405-ha trap crop of C. maxima cultivar “Blue Hubbard”, to provide high densitites of SCR and WCR adults in the corn plots (Howe, et al., Environ. Entomol., 5:745-751 (1976), Lampman, et al., J. Chem. Ecol., 13:959-975 (1987).
(§4) Attraction of Diabrotica species to volatile compounds was measured by the average number of beetles cought during a 24-h period on 1.0-liter cylindrical paper cartons (15.2 cm high, 27.9 cm circumference) which were evenly coated with clear insect adhesive, TangleTrap™ (Tanglefood Co., Grand Rapids, Mich.) The candidate attractants were applied by capillary micropiettes to cotton dental wicks (13 mm long by 6 mm diameter) that were previously impregnated with mineral oil to prolong volatilization. The chemicals were purchased from Aldrich Chemical Co., (Milwaukee, Wis.) and assayed by gas chromatography as >97% pure. Indole, a solid at ambient temperatures (m.p. 52-54° C.), was dissolved in glass-distilled acetone before dosing the cotton wicks. For dosage-acticity tests, the various components were mixed in equal quantities by weight and diluted to the appropriate dosage with acetone. Treated and untreated (control) wicks were attached to the top of the paper cartons with TangleTrap™ and the inverted traps were placed on 1-m-high posts between the sweet corn rows. Four replicates of each treatment and a control were conducted in a randomized complete block desgin. The sticky traps within a block (ca. 50-m row of corn) were 5-10 m apart (depending on the number of treatments in a particular test) and the blocks were 3 m apart. The traps were baited and placed in the field between 1000 and 1300 hours and beetle counts were taken after 24 h. The significance of treatments was determined by analysis of variance and the individual means were separated by Duncan's multiple range test (Statistical Package for Social Sciences (SPSS) (Nie, et al., SPSS: statistical package for the social sciences, 2nd ed. McGraw-Hill, N.Y. (1975)). Student's t test was used for comparisons of two means (Sokal, et al., Biometry, Freeman, San Francisco (1969). Significance levels were set at P=0.05 at all statistical analyses.
(§5) The initial field test in August of the first year evaluated the response of SCR and WCR adults of a mixture of veratrole (V), indole (I), phenylacetaldehyde (P), trans-anethole (A), and eugenol (E) (=VIPAE mixture), as well as to the individual components. Each component in the VIPAE mixture was present at a dosage of 20 mg per trap and was compared with the individual components at 100 mg per trap. The response of SCR and WCR adults to a range of VIPAE doses, 1-300 mg, was conducted on the following day. Fifty SCR adults were removed from each 100-mg VIPAE trap, and returned to the laboratory for sex determination. Additional analyses in August evaluated the reduction in trap catches produced by the sequential removal of the individual components from the VIPAE lure. After the primary components of the initial lure were determined, a modified multicomponent lure consisting of veratrole, indole, and phenylacetaldehyde (=VIP mixture) was compared with its individual components to determine whether the attraction of SCR adults was the result of interactive or additive factors. The attraction and synergistic response of SCR adults of the VIP mixture was verified by tests conducted in August of the following year. […]

[5] = test system: western corn rootworm (WCR) adults; experiment: as above; type: in vivo, Diabrotica virgifera virgifera; conditions: August first year, single compounds 100 mg per trap
Method: as §3, §4, §5

[6] = South Farms, 24 h, mixture 20 mg of each component, n = 4

## CCCc1ccc(OC)cc1 [IV, 4-methoxy-1-propylbenzene]
[1]; July 30
  Relative percent activity as compared with the highest mean in the column (WCR): 37%
  Mean number of WCR per sticky trap (±standard deviation) after 24 hours: 30.5 ± 11.0 per sticky trap

## COc1ccc(CC#N)cc1 [VII, 4-methoxyphenyl acetonitrile]
[1]; August 29
  Relative percent activity as compared with the highest mean in the column (WCR): 78%
  Mean number of WCR per sticky trap (±standard deviation) after 24 hours: 114.5 ± 83.4 per sticky trap
[1]; July 30
  Relative percent activity as compared with the highest mean in the column (WCR): 46%
  Mean number of WCR per sticky trap (±standard deviation) after 24 hours: 37.5 ± 8.4 per sticky trap

## C=CCc1ccccc1 [VIII, allylbenzene]
[1]; August 4 second year
  Mean number of WCR adults per sticky trap (±standard deviation) after 24 hours: 10.0 ± 1.4^a per sticky trap
[1]; August 5 first year
  Mean number of WCR adults per sticky trap (±standard deviation) after 24 hours: 1.0 ± 0.8^a per sticky trap
[2]; August 4 second year
  Mean number of SCR adults per sticky trap (±standard deviation) after 24 hours: 12.4 ± 7.2^b per sticky trap
[2]; August 5 first year
  Mean number of SCR adults per sticky trap (±standard deviation) after 24 hours: 24.7 ± 16.9^a per sticky trap

## C=Cc1ccc(OC)cc1 [III, 4-methoxy-1-vinyl benzene]
[1]; August 29
  Relative percent activity as compared with the highest mean in the column (WCR): 15%
  Mean number of WCR per sticky trap (±standard deviation) after 24 hours: 21.5 ± 6.5 per sticky trap
[1]; July 30
  Relative percent activity as compared with the highest mean in the column (WCR): 40%
  Mean number of WCR per sticky trap (±standard deviation) after 24 hours: 32.2 ± 13.5 per sticky trap

## COc1ccccc1C=CC=O [XIII, 2-methoxycinnamaldehyde]
[1]; August 4 second year
  Mean number of WCR adults per sticky trap (±standard deviation) after 24 hours: 53.0 ± 14.7^c per sticky trap
[2]; August 4 second year
  Mean number of SCR adults per sticky trap (±standard deviation) after 24 hours: 12.2 ± 9.9^b per sticky trap

## COCc1ccc(OC)cc1 [V, 4-methoxy benzyl methyl ether]
[1]; August 29
  Relative percent activity as compared with the highest mean in the column (WCR): 32%
  Mean number of WCR per sticky trap (±standard deviation) after 24 hours: 46.7 ± 29.6 per sticky trap
[1]; July 30
  Relative percent activity as compared with the highest mean in the column (WCR): 46%
  Mean number of WCR per sticky trap (±standard deviation) after 24 hours: 37.7 ± 23.4 per sticky trap

## COc1ccc(C=CC#N)cc1 [IX, 4-methoxycinnamonitrile]
[1]; August 4 second year
  Mean number of WCR adults per sticky trap (±standard deviation) after 24 hours: 196.0 ± 145.3^de per sticky trap
[1]; August 5 first year
  Mean number of WCR adults per sticky trap (±standard deviation) after 24 hours: 59.0 ± 32.1^d per sticky trap
[2]; August 4 second year
  Mean number of SCR adults per sticky trap (±standard deviation) after 24 hours: 4.0 ± 2.2^ab per sticky trap
[2]; August 5 first year
  Mean number of SCR adults per sticky trap (±standard deviation) after 24 hours: 6.5 ± 3.0^a per sticky trap

## NCCCc1ccccc1 [phenylpropylamine]
[3]
  Mean number of NCR per trap (± standard deviation): 131.5 ± 16.5c per trap

## NCCCCc1ccccc1 [phenylbutylamine]
[3]
  Mean number of NCR per trap (± standard deviation): 12.2 ± 6.1a per trap

## NCc1ccccc1 [benzylamine]
[3]
  Mean number of NCR per trap (± standard deviation): 57.5 ± 29.6b* per trap

## NCCc1ccccc1 [phenylethylamine]
[3]
  Mean number of NCR per trap (± standard deviation): 206.7 ± 32.3d per trap
[3]; day 1 after single 100 mg dosage on cotton wick
  Mean number (control subtracted) of NCR per trap: 85.9 per trap
[3]; day 2 after single 100 mg dosage on cotton wick
  Mean number (control subtracted) of NCR per trap: 125.3 per trap
[3]; day 3 after single 100 mg dosage on cotton wick
  Mean number (control subtracted) of NCR per trap: 39.4 per trap
[3]; day 4 after single 100 mg dosage on cotton wick
  Mean number (control subtracted) of NCR per trap: 27.5 per trap
[3]; day 5 after single 100 mg dosage on cotton wick
  Mean number (control subtracted) of NCR per trap: 155.4 per trap
[3]; day 6 after single 100 mg dosage on cotton wick
  Mean number (control subtracted) of NCR per trap: 44.2 per trap
[3]; day 7 after single 100 mg dosage on cotton wick
  Mean number (control subtracted) of NCR per trap: 38.4 per trap
[3]; day 8 after single 100 mg dosage on cotton wick
  Mean number (control subtracted) of NCR per trap: 17.5 per trap
[3]; day 11 after single 100 mg dosage on cotton wick
  Mean number (control subtracted) of NCR per trap: 3.8 per trap

## CC(=O)C=Cc1ccccc1 [XVII, phenyl-3-butone-2-one ketone]
[1]; September 11
  Mean number of WCR adults per sticky trap (±standard deviation) after 24 hours: 0.0 per sticky trap
[2]; September 11
  Mean number of SCR adults per sticky trap (±standard deviation) after 24 hours: 5.0 ± 3.7^b per sticky trap

## CC=Cc1cccc(OC)c1 [II, 4-methoxy-2-propenylbenzene]
[4]; [6]
  Mean number of SCR per trap (±standard deviation): 1.5 ± 1.0 per trap
[4]; mixture 20 mg each component
  relative percent activity of the mean SCR trap catch as compared with the highest mean value in the column: 7%
[5]; [6]
  Mean number of WCR per trap (±standard deviation): 9.0 ± 4.3 per trap
[5]; mixture 20 mg each component
  relative percent activity of the mean WCR trap catch as compared with the highest mean value in the column: 100%
[1]; July 30
  Relative percent activity as compared with the highest mean in the column (WCR): 58%
  Mean number of WCR per sticky trap (±standard deviation) after 24 hours: 48.0 ± 23.3 per sticky trap

## COc1ccc(C=CC(C)=O)cc1 [XVI, 4-(4′-methoxyphenyl)-3-butene-2-one]
[1]; September 11
  Mean number of WCR adults per sticky trap (±standard deviation) after 24 hours: 2.0 ± 3.7^a per sticky trap
[2]; September 11
  Mean number of SCR adults per sticky trap (±standard deviation) after 24 hours: 1.0 ± 0.8^a per sticky trap

## COc1ccc(CCN)cc1 [4-methoxyphenylethylamine]
[3]
  Mean number of NCR per trap (± standard deviation): 24.2 ± 15.4a per trap

Reference: patent publication US6613317B1, “Volatile attractants for diabrotica species” (priority 1988, dated 2003)
